From US7168937B2, “Method for the enzymatic resolution of the racemates of aminomethyl-aryl-cyclohexanol derivatives” (Gruenenthal GmbH, priority 2000, dated 2007)
Where two headings read alike, the source gives them in different places.

Experiments:
Assay type in all cases: physicochemical
[1] = pKa values of the compounds 1 and 2
[2] = logP and logD values water/octanol; details: for logD: pH 7.4, water/octanol; for logP: water/octanol
[3] = logP and logD values water/cyclohexane; details: for ΔlogP value at pH 7.4: difference of logP water/octanol and water/cyclohexane; for ΔlogD value at pH 7.4: pH 7.4, difference of logD water/octanol and water/cyclohexane
[4] = pH 7.4, water/cyclohexane, read-out: logD value at pH 7.4 water/cyclohexane
[5] = water/cyclohexane, read-out: logP value: water/cyclohexane

Row | SMILES | pKa [1] | logD [2] | logP [2] | ΔlogP value at pH 7.4 [3] | ΔlogD value at pH 7.4 [3] | logD hydrocarbon water [3, 4] | logD hydrocarbon water [3, 5]
1 | COc1cccc([C@@]2(O)CC[C@H](O)C[C@@H]2CN(C)C)c1 (racemic) [Compound 2, (1RS,2RS,4SR)-2-dimethylaminomethyl-1-(3-methoxy-phenyl)-cyclohexane-1,4-diol] | 9.05 | -0.564 | 1.1 | 1.733 | 1.733 | -2.3 | -0.632
2 | CCCC(=O)O[C@H]1CC[C@](O)(c2cccc(OC)c2)[C@@H](CN(C)C)C1 (racemic) [Compound 1, (1SR,3RS,4RS)-butyric acid 3-dimethylaminomethyl-4-hydroxy-4-(3-methoxy-phenyl)-cyclohexyl ester] | 8.8 | 1.48 | 2.9 | 0.538 | 0.538 | 0.946 | 2.36
